Laboratory results from patent US20140213446A1, “HERBICIDAL COMPOSITIONS AND METHODS USING COMBINATIONS OF 4-AMINO-3-CHLORO-6-(4-CHLORO-2-FLUORO-3-METHOXYPHENYL)PYRIDINE-2-CARBOXYLIC ACID OR A DERIVATIVE THEREOF AND AN ARYLOXYPHENOXY PROPIONATE ACCASE INHIBITOR HERBICIDE” (DOW AGROSCIENCES LLC, priority 2013, published 2014).

Tests used:
Assay in all cases: Postemergence foliar-applied herbicidal mixtures, weeds common to row crops
Format in all cases: in vivo
[1] = system: OEOBI Oenothera biennis (evening primrose)
Excerpt: (§1) Evaluation of Postemergence Foliar-Applied Herbicidal Mixtures for Control of Weeds Common to Row Crops such as Corn and Soybeans. Seeds or nutlets of the desired test plant species were planted in a soil matrix prepared by mixing a loam or sandy loam soil (e.g., 28.6 percent silt, 18.8 percent clay, and 52.6 percent sand, with a pH of about 5.8 and an organic matter content of about 1.8 percent) and calcareous grit in an 80 to 20 ratio. The soil matrix was contained in plastic pots with a surface area of 84.6 cm^2 and a volume of 560 cubic centimeters (cm^3). When required to ensure good germination and healthy plants, a fungicide treatment and/or other chemical or physical treatment was applied. The plants were grown for 7-31 d in a greenhouse with an approximate 15 h photoperiod which was maintained at about 23-29° C. during the day and 22-28° C. during the night. Nutrients (Peters Excel® 15-5-15 5-Ca 2-Mg) and water were added on a regular basis and supplemental lighting was provided with overhead metal halide 1000-Watt lamps as necessary. The plants were employed for testing when they reached the first, second, or third true leaf stage.
(§2) Treatment requirements were calculated based upon the rates being tested, the concentration of active ingredient or acid equivalent in the formulation, and a 12 mL application volume at a rate of 187 L/ha.
(§3) Treatments consisted of the potassium (K^+) salt of 4-amino-3-chloro-6-(4-chloro-2-fluoro-3-methoxyphenyl)-pyridine-2-carboxylic acid (Cmpd 4) formulated as a soluble liquid (SL), the propargyl ester of 4-amino-3-chloro-6-(4-chloro-2-fluoro-3-methoxyphenyl)-pyridine-2-carboxylic acid (Cmpd 2) as technical grade material, or the benzyl ester of 4-amino-3-chloro-6-(4-chloro-2-fluoro-3-methoxyphenyl)-pyridine-2-carboxylic acid (Cmpd 3) as technical grade material and quizalofop-p-ethyl (Assure® II) alone and in combination. Forms of compound of formula (I) and quizalofop-P-ethyl were applied on an acid equivalent basis.
(§4) For treatments comprised of formulated compounds, measured amounts of compounds were placed individually in 25 mL glass vials and diluted in a volume of 1.5% (v/v) Agri-Dex® crop oil concentrated to obtain 6× stock solutions. […] Application solutions were prepared by adding an appropriate amount of each stock solution (typically 2 mL) and diluted to the appropriate final concentrations with the addition of an appropriate amount of an aqueous mixture of 1.5% (v/v) crop oil concentrate and water so that the final spray solutions contained 1.25+/−0.05% (v/v) crop oil concentrate.
(§5) For treatments comprised of formulated and technical compounds, weighed amounts of the technical materials were placed individually in 25 mL glass vials and dissolved in a volume of 97:3 v/v acetone/DMSO to obtain 6× stock solutions, and measured amounts of the formulated compounds were placed individually in 25 mL glass vials and diluted in a volume of 1.5% (v/v) crop oil concentrate or water to obtain 6× stock solutions. […] Application solutions were prepared by adding an appropriate amount of each stock solution (e.g., 2 mL) and diluted to the appropriate final concentrations with the addition of an appropriate amount of an aqueous mixture of 1.5% (v/v) crop oil concentrate and water so that the final spray solutions contained 1.25% (v/v) crop oil concentrate. When required, additional water and/or 97:3 v/v acetone/DMSO can be added to individual application solutions so that the final acetone and DMSO concentrations of the application solutions being compared are 16.2% and 0.5%, respectively.
(§6) All stock solutions and applications solutions were visually inspected for compound compatibility prior to application. Compound requirements are based upon a 12 mL application volume at a rate of 187 liters per hectare (L/ha). […]

[2] = system: LOLMU Lolium multiflorum Lam. (Italian ryegrass)
Excerpt: as §1, §2, §3, §4, §5, §6

[3] = system: SORHA Sorghum halepense (L.) Pers. (Johnsongrass)
Excerpt: as §1, §2, §3, §4, §5, §6

[4] = system: DIGSA Digitaria sanguinalis (L.) Scop. (large crabgrass)
Excerpt: as §1, §2, §3, §4, §5, §6

[5] = system: AVEFA Avena fatua L. (wild oat)
Excerpt: as §1, §2, §3, §4, §5, §6

For “potassium (K^+) salt of 4-amino-3-chloro-6-(4-chloro-2-fluoro-3-methoxyphenyl)-pyridine-2-carboxylic acid [Cmpd 4]”, the “Percent (%) injury rated visually 14 DAA Obs” value ([1]; Cmpd 4 3.75 g ae/ha) was 50%, the “Percent (%) injury rated visually 14 DAA Obs” value ([1]; Cmpd 4 7.5 g ae/ha) was 80% and the “Percent (%) injury rated visually 14 DAA Obs” value ([2]; Cmpd 4 3.75 g ae/ha) was 0%. For the same compound, the “Percent (%) injury rated visually 14 DAA Obs” value ([2]; Cmpd 4 7.5 g ae/ha) was 15%, the “Percent (%) injury rated visually 14 DAA Obs” value ([2]; Cmpd 4 15 g ae/ha) was 40% and the “Percent (%) injury rated visually 14 DAA Obs” value ([3]; Cmpd 4 3.75 g ae/ha) was 0%. The “Percent (%) injury rated visually 14 DAA Obs” value ([3]; Cmpd 4 7.5 g ae/ha) was 0%, the “Percent (%) injury rated visually 14 DAA Obs” value ([3]; Cmpd 4 15 g ae/ha) was 10% and the “Percent (%) injury rated visually 14 DAA Obs” value ([4]; Cmpd 4 3.75 g ae/ha) was 20%. The “Percent (%) injury rated visually 14 DAA Obs” value ([4]; Cmpd 4 7.5 g ae/ha) was 15% and the “Percent (%) injury rated visually 14 DAA Obs” value ([4]; Cmpd 4 15 g ae/ha) was 40%.

`C#CCOC(=O)c1nc(-c2ccc(Cl)c(OC)c2F)cc(N)c1Cl` [Cmpd 2, propargyl ester of 4-amino-3-chloro-6-(4-chloro-2-fluoro-3-methoxyphenyl)-pyridine-2-carboxylic acid] was tested, and the “Percent (%) injury rated visually 14 DAA Obs” value ([1]; Cmpd 2 3.75 g ae/ha) was 65%, the “Percent (%) injury rated visually 14 DAA Obs” value ([3]; Cmpd 2 3.75 g ae/ha) was 0% and the “Percent (%) injury rated visually 14 DAA Obs” value ([3]; Cmpd 2 7.5 g ae/ha) was 0%. The “Percent (%) injury rated visually 14 DAA Obs” value ([3]; Cmpd 2 15 g ae/ha) was 10%.

For `COc1c(Cl)ccc(-c2cc(N)c(Cl)c(C(=O)OCc3ccccc3)n2)c1F` [Cmpd 3, benzyl ester of 4-amino-3-chloro-6-(4-chloro-2-fluoro-3-methoxyphenyl)-pyridine-2-carboxylic acid], the “Percent (%) injury rated visually 14 DAA Obs” value ([5]; Cmpd 3 3.75 g ae/ha) was 10%, the “Percent (%) injury rated visually 14 DAA Obs” value ([5]; Cmpd 3 7.5 g ae/ha) was 0% and the “Percent (%) injury rated visually 14 DAA Obs” value ([5]; Cmpd 3 15 g ae/ha) was 0%. For the same compound, the “Percent (%) injury rated visually 14 DAA Obs” value ([2]; Cmpd 3 3.75 g ae/ha) was 15%, the “Percent (%) injury rated visually 14 DAA Obs” value ([2]; Cmpd 3 7.5 g ae/ha) was 50% and the “Percent (%) injury rated visually 14 DAA Obs” value ([2]; Cmpd 3 15 g ae/ha) was 40%. The “Percent (%) injury rated visually 14 DAA Obs” value ([4]; Cmpd 3 3.75 g ae/ha) was 40%, the “Percent (%) injury rated visually 14 DAA Obs” value ([4]; Cmpd 3 7.5 g ae/ha) was 40% and the “Percent (%) injury rated visually 14 DAA Obs” value ([4]; Cmpd 3 15 g ae/ha) was 35%.
